Assay results from PubChem BioAssay AID330 (DTP/NCI, 2004).
Where “and” joins values, the source holds several entries; their conditions need not be identical. Equal entries are not always repeated. Inconclusive results and toxic doses are left out.

Tested on: P388 leukemia ip, CD2F1 mice, survival T/C
Experiment: NCI In Vivo Anticancer Drug Screen. Data for tumor model P388 Leukemia (intraperitoneal) in CD2F1 (CDF1) mice
Conditions: endpoint: median survival time, higher = longer survival
How it was run: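 Mice carrying the transplanted tumor received test compound or vehicle. Survival was recorded in each group, and the value is the treated-group measurement divided by that of the vehicle-treated control group.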

[1] = dose: 50.0 mg/kg/injection, schedule: Q01DX009 (ip), vehicle: saline with Tween-80
[2] = dose: 100.0 mg/kg/injection, schedule: Q01DX009 (ip), vehicle: saline with Tween-80
[3] = dose: 200.0 mg/kg/injection, schedule: Q01DX009 (ip), vehicle: saline with Tween-80
[4] = dose: 60.0 mg/kg/injection, schedule: Q01DX005 (ip), vehicle: saline with Tween-80
[5] = dose: 120.0 mg/kg/injection, schedule: Q01DX005 (ip), vehicle: saline with Tween-80
[6] = dose: 12.5 mg/kg/injection, schedule: Q01DX009 (ip), vehicle: water
[7] = dose: 50.0 mg/kg/injection, schedule: Q01DX009 (ip), vehicle: water
[8] = dose: 50.0 mg/kg/injection, schedule: Q01DX009 (ip), vehicle: Klucel (hydroxypropylcellulose) (HPC)
[9] = dose: 100.0 mg/kg/injection, schedule: Q01DX009 (ip), vehicle: Klucel (hydroxypropylcellulose) (HPC)
[10] = dose: 200.0 mg/kg/injection, schedule: Q01DX009 (ip), vehicle: Klucel (hydroxypropylcellulose) (HPC)
[11] = dose: 25.0 mg/kg/injection, schedule: Q01DX009 (ip), vehicle: saline with Tween-80

C[OH2+].[Cl][Cu+].[Cl][Cu+].[NH-]CCC([OH2+])CC[NH-]
T/C (dose: 1.56 mg/kg/injection, schedule: Q01DX005 (ip), vehicle: Klucel (hydroxypropylcellulose) (HPC)): 96 % of control
T/C (dose: 3.12 mg/kg/injection, schedule: Q01DX005 (ip), vehicle: Klucel (hydroxypropylcellulose) (HPC)): 103 % of control
T/C (dose: 6.25 mg/kg/injection, schedule: Q01DX005 (ip), vehicle: Klucel (hydroxypropylcellulose) (HPC)): 106 % of control and 91 % of control

COC1/C=C/OC2(C)Oc3c(C)c(O)c4c(O)c(c(/C=N/N5C(C)CN(Cc6cccc(O)c6)CC5C)c(O)c4c3C2=O)NC(=O)/C(C)=C\C=C\C(C)C(O)C(C)C(O)C(C)C(OC(C)=O)C1C (stereo unspecified)
T/C [1]: 102 % of control
T/C [2]: 100 % of control
T/C [3]: 118 % of control

COC(=O)c1nnn(-c2ccc(C)c(C)c2)c1C(=O)c1ccccc1
T/C [4]: 99 % of control
T/C [5]: 109 % of control

O=C(Nc1nncs1)C(F)(F)F
T/C (dose: 12.5 mg/kg/injection, schedule: Q01DX009 (ip), vehicle: distilled water + Tween-80): 111 % of control
T/C [6]: 109 % of control
T/C (dose: 25.0 mg/kg/injection, schedule: Q01DX009 (ip), vehicle: distilled water + Tween-80): 118 % of control
T/C (dose: 50.0 mg/kg/injection, schedule: Q01DX009 (ip), vehicle: distilled water + Tween-80): 163 % of control
T/C [7]: 159 % of control

CCCCOC1OCN(Cc2ccccc2)CC1(C)C (stereo unspecified)
T/C [1]: 111 % of control
T/C [2]: 123 % of control
T/C [3]: 122 % of control

Cc1cc(C)c2nc(N/N=C/c3cccnc3)sc2c1
T/C [8]: 95 % of control
T/C [9]: 92 % of control
T/C [10]: 92 % of control

Cc1cc(N(C)C)c2ccc3c(ccc4c(N(C)C)cc(C)nc43)c2n1
T/C [11]: 94 % of control
T/C [2]: 103 % of control
T/C [3]: 99 % of control

O=C1c2ccccc2-c2cc3ccccc3c(=O)n21
T/C [4]: 95 % of control
T/C [5]: 91 % of control
T/C (dose: 240.0 mg/kg/injection, schedule: Q01DX005 (ip), vehicle: saline with Tween-80): 89 % of control

CCOCC1COc2c(cc3[nH]cc(C(=O)OCC)c(=O)c3c2Cl)O1 (stereo unspecified) (tested in a mixture with another compound)
T/C [1]: 94 % of control
T/C [2]: 99 % of control
T/C [3]: 101 % of control

COC(=O)/C=N/NS(=O)(=O)c1cccc(N)c1
T/C [6]: 99 % of control
T/C (dose: 25.0 mg/kg/injection, schedule: Q01DX009 (ip), vehicle: water): 107 % of control
T/C [7]: 92 % of control
T/C (dose: 100.0 mg/kg/injection, schedule: Q01DX009 (ip), vehicle: water): 99 % of control and 102 % of control
T/C (dose: 200.0 mg/kg/injection, schedule: Q01DX009 (ip), vehicle: water): 98 % of control

S=P(N1CCCCCC1)(N1CC1)N1CC1
T/C (dose: 12.5 mg/kg/injection, schedule: Q04DX003 (ip), vehicle: saline with Tween-80): 109 % of control
T/C (dose: 16.5 mg/kg/injection, schedule: Q01DX009 (ip), vehicle: saline): 108 % of control
T/C (dose: 33.0 mg/kg/injection, schedule: Q04DX003 (ip), vehicle: saline sonified): 109 % of control
T/C (dose: 37.5 mg/kg/injection, schedule: Q01DX009 (ip), vehicle: saline): 183 % of control
T/C (dose: 50.0 mg/kg/injection, schedule: Q01DX009 (ip), vehicle: saline): 95 % of control
T/C (dose: 50.0 mg/kg/injection, schedule: Q04DX003 (ip), vehicle: saline sonified): 118 % of control
T/C (dose: 50.0 mg/kg/injection, schedule: Q04DX003 (ip), vehicle: saline with Tween-80): 154 % of control

CCC(c1ccc(OCc2ccccc2)cc1)c1cc2c(cc1OC)OCO2 (stereo unspecified)
T/C (dose: 25.0 mg/kg/injection, schedule: Q01DX005 (ip), vehicle: distilled water + Tween-80): 98 % of control
T/C (dose: 50.0 mg/kg/injection, schedule: Q01DX005 (ip), vehicle: distilled water + Tween-80): 92 % of control
T/C (dose: 100.0 mg/kg/injection, schedule: Q01DX005 (ip), vehicle: distilled water + Tween-80): 86 % of control
T/C (dose: 200.0 mg/kg/injection, schedule: Q01DX005 (ip), vehicle: distilled water + Tween-80): 88 % of control

Cc1nc2sc3cc4ccccc4cc3n2c(=O)c1CN1CCCCC1
T/C (dose: 25.0 mg/kg/injection, schedule: Q04DX002 (ip), vehicle: Klucel (hydroxypropylcellulose) (HPC)): 98 % of control
T/C (dose: 50.0 mg/kg/injection, schedule: Q04DX002 (ip), vehicle: Klucel (hydroxypropylcellulose) (HPC)): 113 % of control
T/C (dose: 100.0 mg/kg/injection, schedule: Q04DX002 (ip), vehicle: Klucel (hydroxypropylcellulose) (HPC)): 113 % of control

COc1ccc(C2=C(Cl)C(=O)N(c3ccccn3)C(=O)C2(Cl)Cl)cc1
T/C (dose: 100.0 mg/kg/injection, schedule: Q04DX003 (ip), vehicle: Klucel (hydroxypropylcellulose) (HPC)): 98 % of control
T/C (dose: 200.0 mg/kg/injection, schedule: Q04DX003 (ip), vehicle: Klucel (hydroxypropylcellulose) (HPC)): 106 % of control
T/C (dose: 400.0 mg/kg/injection, schedule: Q04DX003 (ip), vehicle: Klucel (hydroxypropylcellulose) (HPC)): 100 % of control

O=[N+]([O-])C1CCCCCCCCCCC1
T/C (dose: 100.0 mg/kg/injection, schedule: Q01DX001 (ip), vehicle: other): 100 % of control
T/C (dose: 200.0 mg/kg/injection, schedule: Q01DX001 (ip), vehicle: other): 100 % of control
T/C (dose: 400.0 mg/kg/injection, schedule: Q01DX001 (ip), vehicle: other): 108 % of control

Cc1ccc(N=C(SSC(Cl)(Cl)Cl)SSC(Cl)(Cl)Cl)cc1
T/C (dose: 6.25 mg/kg/injection, schedule: Q01DX009 (ip), vehicle: saline with Tween-80): 91 % of control
T/C (dose: 12.5 mg/kg/injection, schedule: Q01DX009 (ip), vehicle: saline with Tween-80): 99 % of control
T/C [11]: 100 % of control
T/C (dose: 50.0 mg/kg/injection, schedule: Q01DX009 (ip), vehicle: saline + alcohol): 104 % of control
T/C [1]: 101 % of control

Cc1ccc(S(=O)(=O)N=S(C)(=O)CCCl)cc1 (stereo unspecified)
T/C (dose: 25.0 mg/kg/injection, schedule: Q04DX003 (ip), vehicle: saline): 100 % of control
T/C (dose: 50.0 mg/kg/injection, schedule: Q04DX003 (ip), vehicle: saline): 107 % of control
T/C (dose: 100.0 mg/kg/injection, schedule: Q04DX003 (ip), vehicle: saline): 100 % of control
T/C (dose: 100.0 mg/kg/injection, schedule: Q04DX003 (ip), vehicle: suspension in saline): 94 % of control

NC(=O)c1ccc(N=Nc2c(O)c3ccccc3[nH]c2=O)cc1
T/C (dose: 50.0 mg/kg/injection, schedule: Q01DX005 (ip), vehicle: saline + Tween-80 + alcohol): 105 % of control
T/C (dose: 100.0 mg/kg/injection, schedule: Q01DX005 (ip), vehicle: saline + Tween-80 + alcohol): 93 % of control
T/C (dose: 200.0 mg/kg/injection, schedule: Q01DX005 (ip), vehicle: saline + Tween-80 + alcohol): 89 % of control

O=C1C=CC(=NS(=O)(=O)c2ccccc2)C=C1
T/C (dose: 12.5 mg/kg/injection, schedule: Q01DX001 (ip), vehicle: other): 100 % of control
T/C (dose: 25.0 mg/kg/injection, schedule: Q01DX001 (ip), vehicle: other): 100 % of control
T/C (dose: 50.0 mg/kg/injection, schedule: Q01DX001 (ip), vehicle: other): 100 % of control

Cc1cccnc1-n1c(N)cc(=O)[nH]c1=S
T/C (dose: 50.0 mg/kg/injection, schedule: Q01DX001 (ip), vehicle: saline with Tween-80): 100 % of control
T/C (dose: 100.0 mg/kg/injection, schedule: Q01DX001 (ip), vehicle: saline with Tween-80): 100 % of control
T/C (dose: 200.0 mg/kg/injection, schedule: Q01DX001 (ip), vehicle: saline with Tween-80): 86 % of control

O=Cc1cc(O)ccc1O
T/C (dose: 100.0 mg/kg/injection, schedule: Q01DX009 (ip), vehicle: saline): 103 % of control and 114 % of control

O=C1NCCCC1(Cl)Cl
T/C (dose: 12.5 mg/kg/injection, schedule: Q01DX009 (ip), vehicle: Klucel (hydroxypropylcellulose) (HPC)): 100 % of control
T/C (dose: 25.0 mg/kg/injection, schedule: Q01DX009 (ip), vehicle: Klucel (hydroxypropylcellulose) (HPC)): 104 % of control
T/C [8]: 94 % of control

CCC(C)C1CCCCC1 (stereo unspecified)
T/C [9]: 104 % of control
T/C [10]: 100 % of control
T/C (dose: 400.0 mg/kg/injection, schedule: Q01DX009 (ip), vehicle: Klucel (hydroxypropylcellulose) (HPC)): 101 % of control

O=c1[nH]cnc2ccc3[nH]ncc3c12
T/C (dose: 50.0 mg/kg/injection, schedule: Q01DX005 (ip), vehicle: saline with Tween-80): 92 % of control
T/C (dose: 100.0 mg/kg/injection, schedule: Q01DX005 (ip), vehicle: saline with Tween-80): 94 % of control
T/C (dose: 200.0 mg/kg/injection, schedule: Q01DX005 (ip), vehicle: saline with Tween-80): 105 % of control
